Eight compounds from patent US5216142A, “Anti-virals” (Efamol Holdings plc, priority 1989, dated 1993) can be followed below.

≈ marks a conversion by molar mass, not a printed value. Entries after “also recorded” stand apart in the source; their conditions may differ. Like-named read-outs stand apart in the source and are kept apart here.

The term CC50 denotes the concentration that lowers cell viability or growth by half.

One data set in a line: in vitro. It is filed as cell-based. The conditions noted are these: human, mt-4 cells, CD50 (50% cytotoxic dose). On the procedure: (§1) Results in relation to HIV virus were obtained by the method of Pauwels et al, Journal of Virological Methods 20, 309 to 321 (1988), as follows:
(§2) MT-4 cells (2.5×10^4 /well) were infected with HIV (100 CCID50) and incubated in the presence of varying concentrations of the test compounds (added immediately after virus infection). After five days incubation at 37° C. in a CO2 incubator, the number of viable cells was assessed by the MTT (tetrazolium) method. Anti-viral activity and cytotoxicity of the compounds are expressed as ED50 (50% effective dose) and CD50 (50% cytotoxic dose), respectively. SI (selectivity index=CD50 /ED50.

A further data set has as its system MT-4 cells. Put plainly: in vitro. It is filed as cell-based. As to conditions: human, 120 h. On the procedure:
as §1, §2

For another data set, the system named is HTLV-IIIB. Put plainly: Anti-HIV activity assay, HTLV-IIIB (MT-4 cells, MTT method). The data set is classed as cell-based. The conditions noted are these: for Selectivity index (SI): CD50/ED50, HTLV-IIIB; for EC50: Human immunodeficiency virus 1, MT4, 120 h, MT-4 cells, five days, HTLV-IIIB, read-out: ED50 (50% effective dose). The procedure:
as §1, §2
(§3) These are given in Table 8 and Table 9 below in relation to HTLV-IIIB and LAV-2ROD viruses.

The test system of another data set is LAV-2ROD. Put plainly: Anti-HIV activity assay, LAV-2ROD (MT-4 cells, MTT method). It is filed as cell-based. The conditions noted are these: for Selectivity index (SI): CD50/ED50, LAV-2ROD; for EC50: MT4, 120 h, MT-4 cells, five days, LAV-2ROD, read-out: ED50 (50% effective dose). On the procedure:
as §1, §2, §3
In general terms: Formazan colour is commonly taken as a measure of viable cells.

For data set [1], the system named is herpes simplex virus Type I. Put plainly: Inactivation of virus (30 minutes incubation, plaque assay). The data set is classed as cell-based, Type 1, Troisbel strain. The conditions noted are these: for log reduction at 5 µg/mL: 5 mg/l; for Virus titre (inactivation of virus): 30 minutes, control 5.4 × 10^4 (GLA-alcohol), 4.5 × 10^4 (GLA-AZT). The procedure: 1. A virus solution containing 2×10^5 pfu/ml is prepared in phosphate buffered saline (Dulbecco's A).
2. The compound to be tested is made up in Dulbecco's medium A in a suitable range of dilutions.
3. Equal volumes of the virus and drug solution are mixed together. Control solutions without drug are also used.
4. The virus and drug are incubated for an appropriate period of time, in this example, thirty minutes.
5. The numbers of active viral particles in the solution are assayed as in items 4 and 5 under A.
The results are shown below (Table 6). In the Table, the figures are concentrations of viral particles present after incubation of the virus for 30 minutes with solutions of the drugs.

The test system of data set [2] is herpes simplex virus Type I (HSV I). Put plainly: Inhibition of virus replication (plaque assay, BHK-21 cells). It is filed as cell-based, Type 1, Troisbel strain. The conditions noted are these: for log reduction at 0.1 µg/mL: 0.1 mg/l. On the procedure: 1. Mono-layers of baby hamster kidney cells (BHK-21) are prepared in Petri dishes containing ETC medium (Eagle's minimal essential medium +10% tryptose phosphate broth +10% new born calf serum).
2. After incubation the medium is poured off to leave the layer of cells attached to the Petri dish. A solution containing virus, specifically herpes simplex virus Type I (HSV I) for example, in ETC medium is then added to the dish and incubated with intermittent rocking for one hour to allow the virus to adsorb to the cells of the mono-layer. Unadsorbed virus is then removed by pouring off the virus-containing medium and washing twice with new sterile medium. Then new medium is added to each Petri dish. At this stage various concentrations of drug can be added to the medium.
3. […] First the dishes are frozen to -70° C. and thawed to disrupt the mono-layer and break up the cells. Then the medium and the disrupted cells are transferred to bijou bottles and sonicated to break down the cells completely and to release all the virus particles the cells contain. The sonicated medium is then diluted with fresh sterile ETC medium to give concentrations of the original Petri dish fluid of 10^-2, 10^-4, 10^-6 and 10^-8.
4. The number of virus particles (plaque forming units) in the dilutions is then assayed. A standard number of BHK cells (usually 8×10^6) is added to 2 ml of the diluted solutions and incubated for one hour, with cautious, gentle shaking, and 8 ml of Eagle's minimal essential medium +2% new born calf serum + carboxymethyl cellulose is then added to the cell suspension. This medium has gelling properties which prevent spreading of the virus through the medium and which encourage the formation of discrete plaques in cell mono-layers. The medium from each dilution is then dispensed into Petri dishes and incubated for two to three days.
5. The number of plaques formed is then counted and the amount of active virus expressed as the number of plaque forming units (pfus) as follows. The medium is poured off and the cell mono-layer is fixed using 10% formol saline and stained with dilute carbol fuchsin. The number of plaques in each Petri dish is counted. Based on the dilutions, the number of plaque forming virus particles in the original solutions is calculated.
In the Table, the figures are the concentration of viral particles in pfu/ml present in the cells + medium at the end of the replication stage (3).

Where [3] appears, read: Human alphaherpesvirus 1, 0.5 h, 1 mg/l, read-out: Inactivation of virus (log10 reduction in virus titre).
[4] abbreviates: Human alphaherpesvirus 1, 0.5 h, read-out: Inactivation of virus (log10 reduction in virus titre).
The mark [5] stands for this setting: Human alphaherpesvirus 1, BHK-21, 24 h, read-out: Inhibition of viral replication (log10 reduction in virus titre).
The mark [6] stands for this setting: Human alphaherpesvirus 1, BHK-21, 24 h, 1 mg/l, read-out: Inhibition of viral replication (log10 reduction in virus titre).

In “in vitro”, `CCCCC/C=C\C/C=C\CCCCCCCC(=O)OC[C@@H]1C=C[C@H](n2cc(C)c(=O)[nH]c2=O)O1` [AK 15] yielded a 50% cytotoxic concentration (CC50) at 120 h of 16.5 µg/mL (≈ 33.9 µM). Further, the “CD50 (50% cytotoxic dose)” value with MT-4 cells amounted to 24.23 µg/mL. Besides, the “Selectivity index (SI)” value with HTLV-IIIB amounted to 256; with LAV-2ROD, 378. Besides, the EC50 in the data set on HTLV-IIIB and in the data set with LAV-2ROD was 0.064 µg/mL (≈ 0.132 µM) throughout.

For `CCCCC/C=C\C/C=C\C/C=C\CCCCC(=O)OC[C@@H]1C=C[C@H](n2cc(C)c(=O)[nH]c2=O)O1` [AK 14], in the data set “in vitro”, the CC50 at 120 h came to 10.3 µg/mL (≈ 21.2 µM). For the same compound, the “CD50 (50% cytotoxic dose)” value in the data set with MT-4 cells is 8.84 µg/mL. In addition, in the data set on HTLV-IIIB, the “Selectivity index (SI)” value turned out to be 134 and the EC50 is 0.076 µg/mL (≈ 0.157 µM). In the data set with LAV-2ROD, the “Selectivity index (SI)” value is 110 and the EC50 stood at 0.08 µg/mL (≈ 0.165 µM).

For `CCCCC/C=C\C/C=C\C/C=C\CCCCC(=O)Nc1nc2c(ncn2COCCO)c(=O)[nH]1` [AK 12], the “Virucidal activity / inactivation of herpes virus (in words)” value (“Virucidal activity / inactivation” for short) in data set [1] was “virucidal”. Moreover, the log reduction at 1 µg/mL is 0.6 in data set [1] (setting [3]) and 3.9 in data set [2] (setting [6]). The log reduction at 5 µg/mL in data set [1] (setting [4]) was found to be 1.4. For the same compound, in data set [2] (setting [5]), the log reduction at 0.1 µg/mL amounted to 1.9.

Compound `Cc1cn([C@H]2C=C[C@@H](CO)O2)c(=O)[nH]c1=O` [AK 16, dideoxy-didehydro thymidine, reference compound] came in with a CC50 at 120 h in “in vitro” of 44.4 µg/mL (≈ 198 µM). The “CD50 (50% cytotoxic dose)” value with MT-4 cells amounted to 46.65 µg/mL. In addition, in the data set on HTLV-IIIB, the “Selectivity index (SI)” value amounted to 574 and the EC50 was 0.077 µg/mL (≈ 0.343 µM). Also, in the data set with LAV-2ROD, the “Selectivity index (SI)” value is given as 1196 and the EC50 came to 0.039 µg/mL (≈ 0.174 µM).

For `CCCCC/C=C\C/C=C\CCCCCCCC(=O)Nc1nc2c(ncn2COCCO)c(=O)[nH]1` [AK 13], the “Virucidal activity / inactivation” value in data set [1] is recorded as “virucidal”. In addition, the figures for the log reduction at 1 µg/mL in data set [1] (setting [3]) and in data set [2] (setting [6]) were 1.3 and 4.3, respectively. Also, the log reduction at 5 µg/mL in data set [1] (setting [4]) was found to be 1.8. The log reduction at 0.1 µg/mL in data set [2] (setting [5]) amounted to 2.45.

For the compound `CCCCC/C=C\C/C=C\C/C=C\CCCCC(=O)Nc1nc2c(ncn2COCCOC(=O)CCCC/C=C\C/C=C\C/C=C\CCCCC)c(=O)[nH]1` [AK 10, digamma-linolenyl acyclovir], the “% in chloroform phase (partition co-efficients, water/chloroform)” value was greater than 99%. In data set [1], the “Virucidal activity / inactivation” value is given as “virucidal; also recorded: very effective”. Further, in data set [1] (setting [3]), the log reduction at 1 µg/mL was determined as 0.94. In addition, the log reduction at 1 µg/mL in data set [1] (Human alphaherpesvirus 1, 0.5 h, 1 mg/liter solution, read-out: Inactivation of virus, log) worked out at 1. In addition, in data set [1] (Human alphaherpesvirus 1, 0.5 h, 1 mg/liter solution, read-out: Inactivation of virus, percent), the killing at 1 µg/mL amounted to 90%. In addition, the log reduction at 5 µg/mL in data set [1] (setting [4]) was determined as 1.54. Besides, in data set [2], the “Inhibition of herpes virus replication (in words)” value (“Inhibition … (in words)” below) is “very effective”. Also, the log reduction at 0.1 µg/mL in data set [2] (setting [5]) worked out at 0.45. For the same compound, the log reduction at 0.5 µg/mL in data set [2] (Human alphaherpesvirus 1, BHK-21, 24 h, 0.5 mg/l, read-out: Inhibition of viral replication (log10 reduction in virus titre)) is 0.86. Besides, the log reduction at 1 µg/mL in data set [2] (setting [6]) stood at 1.13. For the same compound, in data set [2] (Human alphaherpesvirus 1, BHK-21, 24 h, 1 mg/liter solution, read-out: Reduction of virus replication, log), the log reduction at 1 µg/mL is 1. For the same compound, the inhibition at 1 µg/mL in data set [2] (Human alphaherpesvirus 1, BHK-21, 24 h, 1 mg/liter solution, read-out: Reduction of virus replication, percent) came to 90%. Moreover, in the data set on HTLV-IIIB, the “Selectivity index (SI)” value is less than 1 and the EC50 was greater than 8 µg/mL. Besides, in the data set on LAV-2ROD, the “Selectivity index (SI)” value is given as less than 1 and the EC50 is greater than 40 µg/mL.

Take `CCCCC/C=C\C/C=C\CCCCCCCC(=O)O` [LA, linoleic acid, reference compound]: the “Virucidal activity / inactivation” value in data set [1] is on record as “active at concentrations comparable to GLA; also recorded: same effect in inactivating the herpes virus”. For the same compound, the “Inhibition … (in words)” value in data set [2] was “completely unable to inhibit viral replication”.

On to `CCCCC/C=C\C/C=C\C/C=C\CCCCCO` [GLA alcohol, reference compound], for which, in data set [1], the “Virucidal activity / inactivation” value is on record as “able to inactivate the herpes simplex virus”. The “Virus titre (inactivation of virus)” value in data set [1] (5 μg/ml) is given as 3.0 × 10^3; in data set [1] (10 μg/ml) it was 2.2 × 10^2; in data set [1] (25 μg/ml) it was < 1.0 × 10^2. Also, the “Inhibition … (in words)” value in data set [2] is “no effect at all”.
